In publication PMC6271338, “Synthesis and Cytotoxic Evaluation of Alkoxylated Chalcones” (Molecules, 2014):

Key:
[1] = system: HepG2 cells; experiment: In vitro anti-proliferative SRB assay, HepG2; type: cell-based, human; conditions: HepG2 cells, 10 μM, SRB assay, mean ± SD of three independent experiments; for inhibition at 10 µM: Homo sapiens
Procedure: HepG2 and MCF7 cells were grown in the Eagle’s minimum essential medium with Earle’s balanced salts (MEM-EBSS) medium, HeLa, A549 and L02 cells were grown in Dulbecco’s Modified Eagle Media (DMEM), SW1990 cells were grown in RPMI-1640 medium, and HMLE cell were grown in DMEM/F-12 medium. […]
Cells were seeded into 96-well plates (4000 cells/well) and incubated at 37 °C in a humidified 5% CO2 atmosphere. After 24 h, the cells were treated with different concentrations of the compounds for 48 h in triplicate to generate dose-response curves. Cell viability was evaluated using the sulforhodamine B (SRB) assay as previous described.

| Compound | melting point [°C] | inhibition at 10 µM [1] [%] | Inhibition (%) [1] [%] |
| --- | --- | --- | --- |
| COc1ccc(C(=O)/C=C/c2cc(OC)c(OC)cc2OC)cc1 [a19, (E)-1-(4-Methoxyphenyl)-3-(2,4,5-trimethoxyphenyl)prop-2-en-1-one] | 122.1 to 123.7 | 38.1 ± 10.3 | – |
| COc1ccc(C(=O)/C=C/c2ccc(OC)c(OC)c2)cc1 [a15, (E)-1-(4-Methoxyphenyl)-3-(3,4-dimethoxyphenyl)prop-2-en-1-one] | – | 65 ± 17.6 | – |
| COc1ccc(C(=O)/C=C/c2cccc(OC)c2OC)cc1 [a12, (E)-1-(4-Methoxyphenyl)-3-(2,3-dimethoxyphenyl)prop-2-en-1-one] | – | 66.3 ± 4.2 | – |
| COc1ccc(C(=O)/C=C/c2ccc(OC)c(OCc3ccccc3)c2)cc1 [a17, (E)-1-(4-Methoxyphenyl)-3-(3-(benzyloxy)-4-methoxyphenyl)prop-2-en-1-one] | 115 to 118.2 | 44.1 ± 6.2 | – |
| (E)-1-(4-Methoxyphenyl)-3-(4-carbonylphenyl)prop-2-en-1-one [a7] | – | – | 32.7 ± 3.0 |
| CCOc1ccc(/C=C/C(=O)c2ccc(OC)cc2)cc1 [a11, (E)-1-(4-Methoxyphenyl)-3-(4-ethoxyphenyl)prop-2-en-1-one] | 106.3 to 107.9 | 13.1 ± 8.4 | – |
| COc1ccc(C(=O)/C=C/c2ccccc2)cc1 [a1, (E)-1-(4-Methoxyphenyl)-3-phenylprop-2-en-1-one] | – | 42.4 ± 2 | – |

Now from value to compound, other results behind:

| melting point [°C] | Compound | inhibition at 10 µM [1] [%] | Inhibition (%) [1] [%] |
| --- | --- | --- | --- |
| 98.7 to 101 | COc1ccc(C(=O)/C=C/c2ccc(F)cc2Br)cc1 [a4, (E)-1-(4-Methoxyphenyl)-3-(2-bromo-4-fluorophenyl)prop-2-en-1-one] | 41.2 ± 4.6 | – |
| 153.7 to 155.1 | COc1ccc(C(=O)/C=C/c2ccc(Br)cc2)cc1 [a2, (E)-1-(4-Methoxyphenyl)-3-(4-bromophenyl)prop-2-en-1-one] | 37.6 ± 4.4 | – |
| 122.2 to 123.6 | COc1ccc(C(=O)/C=C/c2ccc(Br)cc2F)cc1 [a3, (E)-1-(4-Methoxyphenyl)-3-(4-bromo-2-fluorophenyl)prop-2-en-1-one] | 41.8 ± 5.9 | – |
| 145.3 to 146.4 | COc1ccc(C(=O)/C=C/c2ccc(Br)cc2Cl)cc1 [a5, (E)-1-(4-Methoxyphenyl)-3-(4-bromo-2-chlorophenyl)prop-2-en-1-one] | 9 ± 5.6 | – |
| 95.7 to 97 | COc1ccc(C(=O)/C=C/c2cccc(OC)c2)cc1 [a9, (E)-1-(4-Methoxyphenyl)-3-(3-methoxyphenyl)prop-2-en-1-one] | 59 ± 2.9 | – |
